This is an account of results in US7569550B2, “14 and 15 membered ring compounds” (Glaxo Group Limited, priority 2003, dated 2009).

Assay in all cases: MIC, standard broth dilution method in microtitre
What all share (assay type): cell-based
For orientation: In broth dilution the organism is exposed to a series of concentrations in liquid medium.

Assay [1] concerns erythromycin resistant strains of Streptococcus pyogenes. The protocol:
(§1) Using a standard broth dilution method in microtitre, compounds were tested for antibacterial activity. The compounds in the above examples gave minimum inhibitory concentrations (MICs) less than 1 microgram per millilitre against erythromycin-sensitive and erythromycin-resistant strains of Streptococcus pneumoniae and Streptococcus pyogenes.

Assay [2] deals with erythromycin resistant strains of Streptococcus pneumoniae. The protocol: as §1
The test system of assay [3] is S. aureus Smith ATCC 13709. The note with it: Staphylococcus aureus, ATCC13709. The protocol: as §1
(§2) In addition, the MIC (μg/ml) of test compounds against various organisms was determined including:
(§3) S. aureus Smith ATCC 13709, S. pneumoniae SP030, S. pyogenes 3565, E. faecalis ATCC 29212, H. influenzae ATCC 49247, M. catarrhalis ATCC 23246.

Assay [4] relates to M. catarrhalis ATCC 23246. The settings on record: Moraxella catarrhalis, ATCC23246. The protocol:
as §1, §2, §3

For the next assay, the system named is S. pyogenes 3565. The note with it: Streptococcus pyogenes. The procedure:
as §1, §2, §3

Another assay has as its system S. pneumoniae SP030. The note with it: Streptococcus pneumoniae. The protocol:
as §1, §2, §3

The test system of the next assay is E. faecalis ATCC 29212. The note with it: Enterococcus faecalis, ATCC29212. The protocol:
as §1, §2, §3

A further assay relates to H. influenzae ATCC 49247. The settings on record: Haemophilus influenzae, ATCC49247; H. influenzae ATCC 49247; read-out: MIC. The procedure:
as §1, §2, §3

For `CC[C@@H]1OC(=O)[C@H](C)[C@H](O[C@@H]2C[C@](C)(OC)[C@H](OCCCNCCOc3cc4c5c(c3)c(=O)c(C(=O)O)cn5CCC4)[C@H](C)O2)[C@@H](C)[C@H](O[C@H]2O[C@@H](C)C[C@@H](N(C)C)[C@H]2O)[C@](C)(OC)C[C@H](C)C(=O)[C@H](C)[C@H]2OC(=O)O[C@@]12C` [Example 6, 4″-O-{3-[2-(2-Carboxy-1-oxo-6,7-dihydro-1H,5H-pyrido[3,2,1-ij]quinoline-9-yloxy)-ethylamino]-propyl}-6-O-methyl-erythromycin A 11,12-carbonate bisformate], the MIC in assay [1] is ≤ 1 µg/mL; in assay [2], ≤ 1 µg/mL; in assay [3], ≤ 1 µg/mL; in assay [4], ≤ 4 µg/mL; with S. pyogenes 3565 it was ≤ 1 µg/mL; in the assay on S. pneumoniae SP030 it was ≤ 1 µg/mL. Besides, the MIC in the assay on E. faecalis ATCC 29212 is ≤ 1 µg/mL; with H. influenzae ATCC 49247 it was ≤ 4 µg/mL.
In the case of `CC[C@@H]1OC(=O)[C@H](C)[C@H](O[C@@H]2C[C@](C)(OC)[C@H](OCCN(C)CCNc3nc4c(cc3F)c(=O)c(C(=O)O)cn4CC)[C@H](C)O2)[C@@H](C)[C@H](O[C@H]2O[C@@H](C)C[C@@H](N(C)C)[C@H]2O)[C@](C)(OC)C[C@H](C)C(=O)[C@H](C)[C@H](O)[C@@]1(C)O` [Example 19], the MIC in assay [1] is ≤ 1 µg/mL; in assay [2], ≤ 1 µg/mL; in assay [3], ≤ 1 µg/mL; in assay [4], ≤ 4 µg/mL; against S. pyogenes 3565 it was ≤ 1 µg/mL; in the assay on S. pneumoniae SP030, ≤ 1 µg/mL. Moreover, the MIC is ≤ 1 µg/mL against E. faecalis ATCC 29212 and ≤ 4 µg/mL with H. influenzae ATCC 49247.
